From PubChem BioAssay AID1963841 (Molecular Pharmacology Branch, DTP, NCI, 2024) come the findings set out here.

pIC50: −log10 of the molar value. Where “and” joins values, the source holds several entries; their conditions need not be identical. Identical values can stand only once.

In this experiment the test system is 439559-082-T-J2-PDC spheroid viability. Kind of experiment: Anticancer human tumor 439559-082-T-J2-PDC patient-derived colon adenocarcinoma cell line growth inhibition [POLQ]. To be noted: spheroids with HUVEC and MSC; for viability, T/C: stronger effect = lower value; for pIC50: curve of compound. Here is the method: Multicellular complex tumor spheroid response to Polymerase (POL) inhibitors (novobiocin, ART-558, RP6685) in combination with a variety of drugs and investigational agents in selected tumor cell lines
The POL inhibitors (novobiocin, ART-558, and RP6685) were evaluated both individually and in combination with standard of care and investigational anticancer small molecules within a complex spheroid model of solid tumors. . Complex spheroids include a stromal component modeled by human endothelial cells (HUVEC) and fibroblasts modeled by human mesenchymal stem cells (MSCs). The concentration ranges selected for each drug and investigational agent were based upon clinically achievable concentrations if the clinical Cmax of the agent was known.
Compounds. The drugs and investigational agents: novobiocin (NSC847541), ART-558 (NSC835418), RP-6685 (NSC848927), peposertib (NSC802822), ceralasertib (NSC780249), elimusertib (NSC800525), camonsertib (NSC841442), AZD-1390 (NSC803789), olaparib (NSC753686), talazoparib (NSC767125), rucaparib (NSC756644), sotorasib (NSC818433), MRTX-1133 (NSC836407), SN-38 (NSC673596), topotecan (NSC609699), epotoside (NSC141540), doxorubicin (NSC123127), gemcitabine (NSC613327), 5-fluorouracil (NSC19893), paclitaxel (NSC125973), vemurafenib (NSC761431), MSA-2 (NSC828583), SN-011 (NSC837082), adavosertib (NSC754352), prexasertib (NSC758257), carboplatin (NSC241240) and oxaliplatin (NSC266046), were obtained from the National Cancer Institute (NCI) Developmental Therapeutics Program Chemical Repository (21). The FDA-approved anticancer drug set is available from the Developmental Therapeutics Program at https://dtp.cancer.gov/organization/dscb/obtaining/. […] The stock solutions were prepared in dimethyl sulfoxide (DMSO, Sigma-Aldrich, St. Louis, MO, cat. D2650), except for the platinum compounds which were prepared in saline (Quality Biological, Gaithersburg, MD, cat. 114-055-101), at 800-fold the tested concentration and stored at -70 degrees C prior to their use. All drugs and investigational agents were tested over a range starting from a high concentration at or near the clinical Cmax and decreasing in half-log increments. If the clinical Cmax for an agent had not been determined, the highest concentration tested was 10 microM, except for SN-38, which was tested at a high concentration of 1 microM.
Cell Culture. All cells were maintained in an incubator at 37 degrees C and 5% CO2 with 95% humidity. The PDC lines were cultured according to standard operating procedures established by the NCI PDMR (https://pdmr.cancer.gov). Table 3 of the manuscript, lists the cell lines along with the number of the three cell types plated to form the mct-spheroids and media for tumor cell growth. After thawing, all PDC lines, except 997537-175-T-J1-PDC and 415267-285-R-J2-PDC, were cultured in Matrigel-coated flasks prepared with a working solution of 1X Ham's F-12 nutrient mix, without supplementation (Thermo Fisher Scientific, cat. 11765054), 100 U/mL penicillin-streptomycin (Thermo Fisher Scientific, cat. 15140122), and 2.5% Matrigel (Corning Inc., Corning, NY, cat. 354248) for the first three passages. The two PDC lines 997537-175-T-J1-PDC and 415267-285-R-J2-PDC were cultured on uncoated flasks. The 857933-349-R-J2-PDC line was cultured in 6C/Colon 1B media containing advanced DMEM/F-12 (Thermo Fisher Scientific, cat. 12634028), 10 mM HEPES (Thermo Fisher Scientific, cat. 15630080), 1X GlutaMAX supplement (Thermo Fisher Scientific, cat. 35050061), 0.1 mg/mL primocin (InvivoGen, San Diego, CA, cat. ant-pm-2), 10% defined fetal bovine serum, heat inactivated (HyClone Laboratories Inc., Logan, UT, cat. SH30070.03HI), 50% L-WRN conditioned media (ATCC, cat. CRL-3276), 1.25 mM N-Acetyl-L-cysteine (Sigma-Aldrich, cat. A9165), 10 mM nicotinamide (Sigma-Aldrich, cat. N0636), 1X B-27 supplement (Thermo Fisher Scientific, cat. 17504044), 1X N-2 supplement (Thermo Fisher Scientific, cat. […]
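Also: spheroids exposed to compounds for seven days before readout.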

One may read the viability, T/C as the result in the treated group divided by that in the control group, in per cent. In general, pIC50 refers to the negative decadic logarithm of the IC50, by convention in mol/L. `CCc1cc2c(N3CCc4c(cc(Cn5ccnc5)cc4-c4cn(C)nc4C(F)(F)F)C3=O)cc(C)nc2c(OC)n1`: the pIC50 was below 5.00. For the same compound, for the setting “compound 0.0316 µM”, the viability, T/C was 105% and 93.7% and 95.3%. Under “compound 0.1 µM”, the viability, T/C is 94.8% and 96.5% and 90.4%. In addition, the viability, T/C (compound 0.316 µM) is 94.4% and 95.2% and 87.4%. The viability, T/C (compound 1 µM) is 103% and 91.7% and 94.3%. In addition, the viability, T/C (compound 3.16 µM) was 99.1% and 101% and 92.2%. Besides, the viability, T/C (compound 10 µM) was 94.1% and 90.4% and 87.9%.

Turning to `CCc1cc2c(N3CCc4c(cc(Cn5ccnc5)cc4-c4cn(C)nc4C(F)(F)F)C3=O)ccnc2c(OC)n1`, the pIC50 was below 5.00. Moreover, the viability, T/C (compound 0.0316 µM) is 96.6% and 87.7% and 94.8%. Besides, the viability, T/C (compound 0.1 µM) is 100% and 94.5% and 93.2%. Further, the viability, T/C (compound 0.316 µM) was 102% and 101% and 87.4%. In addition, under “compound 1 µM”, the viability, T/C is 101% and 95% and 96%. Also, the viability, T/C (compound 3.16 µM) is 107% and 95% and 90.8%. Further, where the note is “compound 10 µM”, the viability, T/C is 94.8% and 89.2% and 94.2%.

On to `CNCc1ccc(-c2[nH]c3cc(F)cc4c3c2CCNC4=O)cc1`, for which the pIC50 is below 5.00. For the same compound, the viability, T/C (compound 0.0316 µM) was 95.3% and 101% and 103%. Moreover, the viability, T/C (compound 0.1 µM) was 100% and 103% and 95.7%. Also, the viability, T/C (compound 0.316 µM) is 102% and 96.3% and 92.9%. Further, the viability, T/C (compound 1 µM) was 98.9% and 111% and 95.9%. Further, the viability, T/C (compound 3.16 µM) is 108% and 124% and 107%. Further, the viability, T/C (compound 10 µM) was 94.3% and 101% and 108%.

Regarding `COc1cc2cc(C(=O)CCC(=O)O)sc2cc1OC`, the pIC50 is below 5.00. Further, for the setting “compound 0.0316 µM”, the viability, T/C was 109% and 97.5% and 94.4%. Moreover, the viability, T/C (compound 0.1 µM) was 93.8% and 82% and 103%. Also, the viability, T/C (compound 0.316 µM) is 89.1% and 98.4% and 98.9%. In addition, the viability, T/C (compound 1 µM) is 95.2% and 100% and 99.7%. In addition, the viability, T/C (compound 3.16 µM) is 95.2% and 91.9% and 97%. Besides, the viability, T/C (compound 10 µM) was 87.7% and 100% (2×).

As for `COc1ccc([C@@H](O)c2cc(-c3ncnc4cc(N5CCOCC5)ccc34)c(F)cc2Cl)nn1`, the pIC50 is below 5.00. The viability, T/C (compound 0.0316 µM) was 94.6% and 84.4% and 97.3%. Under “compound 0.1 µM”, the viability, T/C was 98.2% and 88.9% and 93%. Besides, the viability, T/C (compound 0.316 µM) is 93.3% and 85.8% and 90.6%. Further, the viability, T/C (compound 1 µM) was 103% and 90.1% and 94.2%. For the same compound, the viability, T/C (compound 3.16 µM) is 89.3% and 96.5% and 85.9%. Besides, the viability, T/C (compound 10 µM) is 82.2% (2×) and 75.2%.

With `Nc1ccn(C2OC(CO)C(O)C2(F)F)c(=O)n1` (stereo unspecified), the pIC50 is 6.12 and 6.18 and 6.30. For the same compound, the viability, T/C (compound 0.0316 µM) is 84.5% and 77.1% and 81%. The viability, T/C (compound 0.1 µM) is 68.2% and 74.4% and 72%. Also, the viability, T/C (compound 0.316 µM) is 58.2% and 59% and 56.6%. The viability, T/C (compound 1 µM) was 49.8% and 43.5% and 39.9%. Where the note is “compound 3.16 µM”, the viability, T/C is 36.5% and 35.1% and 30.8%. Besides, the viability, T/C (compound 10 µM) is 31.1% and 26.7% and 27.3%.

Turning to `O=C(Nc1ccc(O)c(NS(=O)(=O)c2ccc(F)cc2)c1)c1ccc(-c2ccccc2)cc1`, the pIC50 is below 5.00. Moreover, the viability, T/C (compound 0.0316 µM) was 91% and 95.6% and 94.9%. Besides, for the setting “compound 0.1 µM”, the viability, T/C is 95.3% and 90.8% and 94.3%. Also, the viability, T/C (compound 0.316 µM) was 87.2% and 100% and 98.6%. Under “compound 1 µM”, the viability, T/C is 97.2% and 96.6% and 96.2%. Further, the viability, T/C (compound 3.16 µM) is 112% and 107% and 106%. For the same compound, the viability, T/C (compound 10 µM) was 105% and 102% and 101%.

Consider `O=C(c1cc(Cc2n[nH]c(=O)c3ccccc23)ccc1F)N1CCN(C(=O)C2CC2)CC1`, for which the pIC50 is below 5.00. Moreover, the viability, T/C (compound 0.0316 µM) is 88.1% and 67.6% and 87.6%.
